Source: ChEMBL document CHEMBL2321754, “Novel small molecule protein arginine deiminase 4 (PAD4) inhibitors” (Bioorg Med Chem Lett, 2013)
pKi: −log10 of the molar value.

Key:
Carbonic anhydrase 9 = Carbonic anhydrase 9 (Homo sapiens, UniProt Q16790)
Description: Inhibition of human CA9 by stopped-flow assay

Carbonic anhydrase 2 = Carbonic anhydrase 2 (Homo sapiens, UniProt P00918); experiment: Inhibition of human CA2 by stopped-flow assay
Carbonic anhydrase 1 = Carbonic anhydrase 1 (Homo sapiens, UniProt P00915); experiment: Inhibition of human CA1 by stopped-flow assay
Carbonic anhydrase 12 = Carbonic anhydrase 12 (Homo sapiens, UniProt O43570); experiment: Inhibition of human CA12 by stopped-flow assay
Chain of Carbonic anhydrase 12 (O43570 whole entry): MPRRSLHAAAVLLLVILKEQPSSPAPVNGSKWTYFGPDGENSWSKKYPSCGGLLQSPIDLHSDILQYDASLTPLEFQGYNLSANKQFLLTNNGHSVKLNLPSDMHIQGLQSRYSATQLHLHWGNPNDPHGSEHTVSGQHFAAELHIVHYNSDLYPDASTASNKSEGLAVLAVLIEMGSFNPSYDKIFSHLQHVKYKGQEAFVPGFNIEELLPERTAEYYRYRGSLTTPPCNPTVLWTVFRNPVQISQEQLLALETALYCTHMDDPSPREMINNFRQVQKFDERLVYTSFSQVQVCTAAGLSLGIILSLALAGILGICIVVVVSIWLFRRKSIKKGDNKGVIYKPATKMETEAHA

Chain of Carbonic anhydrase 1 (P00915 whole entry): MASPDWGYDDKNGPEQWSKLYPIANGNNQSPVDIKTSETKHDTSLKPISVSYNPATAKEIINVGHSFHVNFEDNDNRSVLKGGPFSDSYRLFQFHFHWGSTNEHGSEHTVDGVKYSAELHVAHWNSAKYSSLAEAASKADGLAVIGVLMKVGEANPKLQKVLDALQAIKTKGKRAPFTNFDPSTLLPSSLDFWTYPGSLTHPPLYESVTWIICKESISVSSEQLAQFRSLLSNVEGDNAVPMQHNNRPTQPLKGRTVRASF

pKi (Carbonic anhydrase 9)	pKi (Carbonic anhydrase 2)	pKi (Carbonic anhydrase 1)	pKi (Carbonic anhydrase 12)	SMILES
5.38	5.12	5.08	4.84	N=C(N)Nc1ccc(O)cc1
5.59	5.94	6.20	6.32	N=C(N)Nc1ccc(C(=O)O)cc1 [4-GUANIDINO-BENZOIC ACID]

SMILES	pKi (Carbonic anhydrase 9)	pKi (Carbonic anhydrase 2)	pKi (Carbonic anhydrase 1)	pKi (Carbonic anhydrase 12)
N=C(N)NCCc1ccc(S(N)(=O)=O)cc1	7.47	7.05	6.62	7.85
